Data on five compounds can be found in patent US12435088B2, “Salicyl-adenosinemonosulfamate analogs and uses thereof” (priority 2018, dated 2025).

In brackets after ≈: the same amount, converted by molar mass. Read-outs that look alike come from different tables or passages of the source. Marks after values point to notes of the source that are not given here.

One may read the IC50 as the point on the concentration scale where inhibition reaches its midpoint.

In data set [1] the target is T1, H10MbtA^opt (MbtAtb) (Mycobacterium tuberculosis (strain ATCC 25618 / H37Rv), UniProt P71716). As to the kind of experiment: biochemical.
T1 sequence (P71716 whole entry, added parts left off): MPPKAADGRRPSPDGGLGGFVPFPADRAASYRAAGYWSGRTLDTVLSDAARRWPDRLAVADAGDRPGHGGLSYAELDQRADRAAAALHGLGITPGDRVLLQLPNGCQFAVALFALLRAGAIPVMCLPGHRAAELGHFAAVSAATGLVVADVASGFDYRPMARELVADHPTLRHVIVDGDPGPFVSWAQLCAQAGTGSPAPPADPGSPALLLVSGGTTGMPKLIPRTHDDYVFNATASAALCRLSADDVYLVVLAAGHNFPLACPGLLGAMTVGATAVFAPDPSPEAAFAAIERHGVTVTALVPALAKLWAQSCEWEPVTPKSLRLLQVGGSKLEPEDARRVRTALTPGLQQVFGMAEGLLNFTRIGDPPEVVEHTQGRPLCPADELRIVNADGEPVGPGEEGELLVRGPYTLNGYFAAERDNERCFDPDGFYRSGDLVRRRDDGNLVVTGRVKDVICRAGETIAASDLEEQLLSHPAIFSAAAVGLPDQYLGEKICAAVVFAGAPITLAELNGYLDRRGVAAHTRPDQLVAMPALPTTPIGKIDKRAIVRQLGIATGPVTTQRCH
The test system of data set [2] is PPT/PNP coupling system. As to the kind of experiment: Off-target control: effect on PPT/PNP coupling system of the HA-MesG assay. The data set is classed as biochemical. How it is done:
The adenylation activity of H10MbtA^opt and its inhibition were evaluated using a H10MbtA^opt-optimized variation of the hydroxylamine-7-methyl-6-thioguanosine (HA-MesG) spectrophotometric assay (Wilson, D. J., et al. (2010) Anal. Biochem. 404, 56-63). The assay was carried out in a 96-well plate format as previously reported (Davis, T. D., et al. (2016) Bioorg. Med. Chem. Lett. 26, 5340-5345). The assay reaction mixture was optimized for H10MbtAopt activity. Optimization experiments included evaluation of various concentrations of Tris·HCl (and pH), hydroxylamine, MesG, ATP, NaCl, MgCl2, glycerol, reducing agents (DTT and TCEP), and detergent (IGEPAL, CHAPS, and Triton-X100). Unless otherwise indicated for specific experiments, the optimized assay reaction mixture contained the following: 50 mM Tris·HCl, pH 8.0; 3 mM MgCl2; 0.5 mM DTT; 0.1 U purine nucleoside phosphorylase (PNP); 0.04 U inorganic pyrophosphatase (PPT); 450 mM hydroxylamine; 0.4 mM MesG; 1 mM ATP; 300 μM salicylic acid; 0.01% CHAPS buffer; 7.5% ultrapure glycerol; and H10MbtA^opt at concentrations noted for specific experiments. […] Reactions were preincubated for 10 min at 25° C. before being initiated by the addition of either salicylic acid for steady state kinetic analysis or H10MbtA^opt for progress curve analysis. The phosphorolysis of MesG was measured continuously at either regular 1-min intervals (for steady state kinetic analysis) or 25-sec intervals (for progress curves analysis) for up to 45 min, at 360 nm and 25° C. in a DTX 880 multimode detector microplate reader (Beckman Coulter, Inc.).

Data set [3] concerns the target T1, H10MbtA^opt (MbtAtb). Kind of data set: Progress curve analysis of H10MbtA^opt inhibition (HA-MesG assay). The data set is classed as biochemical.
The test system of data set [4] is M. smegmatis ΔEM-pMbtAtb. As to the kind of experiment: microbe, parasite or virus in culture. The data set is classed as cell-based, Mycobacterium smegmatis. Particulars: for MIC (μg/ml), mean / MIC (μg/ml), range: GASTD medium, three independent experiments.
Data set [5] deals with M. smegmatis ΔEM-pMbtAtb. Kind of data set: Post-antibiotic effect (PAE) washout assay.
Protocol: Cells from mid-log growth phase cultures of Msm ΔEM-pMbtAtb in GASTD medium (37° C., 170 rpm, OD600≈0.75) were harvested by centrifugation and washed in GASTD medium (3 times with I culture volume). The washed cells were resuspended in GASTD medium and transferred to U-bottom 96-well cell culture plates (Corning, Inc.) for inhibitor exposure at a cell density corresponding to OD600=1.0 (50 μL/well). […] Inhibitors were added from 10% DMSO stock solutions, with a final DMSO concentration of 1% in both inhibitor-exposed cultures and DMSO controls (no inhibitor). […] The 96-well plates were incubated for culture growth at 37° C. in a FLUOstar Optima microplate reader (BMG Labtech, Inc.), and OD600 readings were taken every 30 min following plate shaking (5 min, 200 rpm) for 5 days. The growth vs. time datasets were analyzed to determine the time at which cultures reached an exponential growth phase threshold of OD600=0.05 (≈5% of maximal growth) (FIG. 8). The time-to-threshold data were used to calculate PAE as the difference between the time-to-threshold values of the inhibitor-exposed culture and the control cultures (Stubbings, W. J., et al. (2004) J. Antimicrob. Chemother. 54, 139-143). Data presented are derived from three independent experiments.
In data set [6] the test system is M. tuberculosis H37Rv. Kind of data set: Growth inhibition assay (Alamar Blue MIC) for M. tuberculosis H37Rv. The data set is classed as cell-based, Mycobacterium tuberculosis. To be noted: at least 90% inhibition, 7 days.
Data set [7] deals with Msm WT. Kind of data set: Growth inhibition microdilution assay, Msm WT. It counts as cell-based, Mycobacterium smegmatis.
For data set [8], the system named is Msm ΔE. It counts as cell-based, Mycobacterium smegmatis.
The test system of data set [9] is Msm ΔM. The data set is classed as cell-based, Mycobacterium smegmatis.
Data set [10] relates to Msm ΔEM. The data set is classed as cell-based, Mycobacterium smegmatis. Particulars: GASTD + Fe medium.
Data set [11] has as its system MBT production in Msm ΔEM-pMbtAtb. It counts as cell-based, Mycobacterium smegmatis. To be noted: FIG. 7, radio-TLC.
Data set [12] concerns the target MbtAtb (Mycobacterium tuberculosis (strain ATCC 25618 / H37Rv), UniProt P71716). To be noted: cited from earlier work.
Data set [13] concerns mammalian cells. To be noted: cited from earlier work.
In data set [14] the test system is Mtb. Particulars: cited from earlier work.
Setting [15] is: Table 8, GASTD + Fe medium, tested up to 64 μg/mL.
Where [16] appears, read: IC50 (nM), H10MbtA^opt at 250 nM, two independent dose-response experiments.
Setting [17] is: IC50, preliminary dose-response experiment (vi/vo vs. log[inhibitor]), FIG. 4A-C, single experiment, inhibition of H10MbtA^opt.
Setting [18] is: Mycolicibacterium smegmatis, read-out: MIC (μg/ml), mean.

Chain of MbtAtb (P71716 whole entry, looked up): as the sequence (P71716 whole entry, added parts left off) above

As to `Nc1ncnc2c1ncn2[C@@H]1OC(CNS(=O)(=O)NC(=O)c2ccccc2O)[C@@H](O)[C@H]1O` (some centres unmarked) [4a, salicyl-AMSN], in data set [1] (H10MbtA^opt at 250 nM, two independent dose-response experiments, read-out: IC50), the concentration for half-maximal inhibition (IC50) is 246 ± 2.9 nM. Moreover, the results for the “Fractional velocity v1/v0” value in data set [2] ([inhibitor] = 4 μM) and in [2] ([inhibitor] = 40 µM) were 0.94 and 0.96, respectively. Further, the Ki in data set [3] (H10MbtA^opt 1 μM, inhibitor 4,000-1,041 nM, minimum of five independent experiments, read-out: Ki^app) is 0.295 ± 0.0239 µM. The “MIC” value in data set [4] (setting [15]) is over 64 µg/mL. Besides, the “MIC (μg/ml), mean” value in data set [4] (Table 8) came out at 1.00 ± 0 µg/mL (≈ 2.15 µM). Further, the “MIC (μg/ml), range” value in [4] (Table 8) was 1.0 µg/mL (≈ 2.15 µM). Also, the results for the “PAE” value in [5] (1 h exposure at 5 × MIC), in data set [5] (1 h exposure at 50 × MIC) and in data set [5] (1 h exposure at 100 × MIC) were 10.6 ± 2.7 h, 18.7 ± 1.3 h and 23.1 ± 3.1 h, respectively.
Take `CN(C[C@H]1O[C@@H](n2cnc3c(N)ncnc32)[C@H](O)[C@@H]1O)S(=O)(=O)NC(=O)c1ccccc1O` [4b, N—(N-(((2R,3S,4R,5R)-5-(6-Amino-9H-purin-9-yl)-3,4-dihydroxytetrahydrofuran-2-yl)-methyl)-N-methylsulfamoyl)-2-hydroxybenzamide]: the values for the half-maximal inhibitory concentration (IC50) in [1] (setting [16]) and in data set [1] (setting [17]) were 175 ± 4.3 nM and 179 nM, respectively. Besides, in [3], the Ki was found to be 0.159 ± 0.0081 µM. Moreover, in data set [4] (setting [18]), the MIC stood at 0.83 ± 0.17 µg/mL (≈ 1.73 µM). The “MIC (μg/ml), range” value in data set [4] (Table 8) was 0.5 to 1.0 µg/mL. For the same compound, the “PAE” value in data set [5] (1 h exposure at 5 × MIC) stood at 13.4 ± 2.6 h; in data set [5] (1 h exposure at 50 × MIC) it was 17.4 ± 4.7 h; in [5] (1 h exposure at 100 × MIC) it was 10.4 ± 2.2 h.
With `COc1ncnc2c1ncn2[C@@H]1O[C@H](CNS(=O)(=O)NC(=O)c2ccccc2O)[C@@H](O)[C@H]1O` [compound 6, N—(N-(((2R,3S,4R,5R)-3,4-Dihydroxy-5-(6-methoxy-9H-purin-9-yl)tetrahydrofuran-2-yl)methyl)sulfamoyl)-2-hydroxybenzamide], the “Inhibitor behavior (IC50≈½ [E])” value in [1] (HA-MesG assay) is “tight-binding inhibitor behavior”. Further, the half-maximal inhibitory concentration (IC50) amounted to 289 ± 16.4 nM in data set [1] (setting [16]) and 273 nM in [1] (setting [17]). Also, the “Fractional velocity v1/v0” value in data set [2] ([inhibitor] = 4 μM) and in data set [2] ([inhibitor] = 40 µM) was 1.00 throughout. The compound also registered a Ki in [3] of 0.277 ± 0.0122 µM. In addition, the “Mechanism of inhibition from progress curves” value in data set [3] (time-dependent inhibition of H10MbtAopt) is recorded as “slow-onset inhibitors”. For the same compound, the MIC in [4] (setting [18]) was 5.33 ± 1.33 µg/mL (≈ 11.1 µM); in data set [4] (setting [15]), over 64 µg/mL; in [6] (Mycobacterium tuberculosis, H37RV, 168 h, GAST-D + Fe medium (100 μM FeCl3), read-out: MIC) it was 0.5 to 1 µg/mL; in data set [6] (Mycobacterium tuberculosis, H37RV, 168 h, GAST-D medium, read-out: MIC), 0.125 to 0.25 µg/mL (≈ 0.26 to 0.52 µM). Besides, in [4] (Table 8), the “MIC (μg/ml), range” value is 4.0 to 8.0 µg/mL.
With “5′-O—[N-salicylsulfamoyl]adenosine [compound 1]”, the “MIC” value is over 1000 µg/mL in [7] (GASTD + Fe medium); over 1000 µg/mL in data set [7] (GASTD medium (Fe-limiting)); over 1000 µg/mL in data set [8] (GASTD + Fe medium); 0.5 to 1.0 µg/mL in [8] (GASTD medium (Fe-limiting)); over 1000 µg/mL in data set [9] (GASTD + Fe medium); over 1000 µg/mL in [9] (GASTD medium (Fe-limiting)). The “MIC” value is over 1000 µg/mL in data set [10]; over 1000 µg/mL in data set [4] (Table 7, Msm ΔEM-pMbtAtb (−/+), GASTD + Fe medium); 0.5 to 1.0 µg/mL in data set [4] (Table 7, Msm ΔEM-pMbtAtb (−/+), GASTD medium (Fe-limiting)); over 64 µg/mL in data set [4] (setting [15]); 0.5 to 1.0 µg/mL in data set [6] (GAST-D + Fe medium (100 μM FeCl3)); 0.125 to 0.25 µg/mL in [6] (GAST-D medium). In addition, the “MIC (μg/ml), mean” value in data set [4] (Table 8) was 0.83 ± 8.17 µg/mL. Also, the “MIC (μg/ml), range” value in data set [4] (Table 8) was 0.5-1.0^b μg/ml. The “Effect on MBT production” value in data set [11] is “inhibited MBT production”. Further, the “Inhibition of MbtAtb (previous in vitro studies)” value in [12] is given as “potent, selective, tight-binding inhibitor”. In addition, the “Cytotoxicity against mammalian cells” value in data set [13] is “not cytotoxic”. In addition, the “Mtb growth in the mouse lung” value in data set [14] (monotherapy at 5.6 or 16.7 mg/kg) was “significant reduction of Mtb growth in the mouse lung”. Besides, the “Dose at which in vivo toxicity was observed” value in data set [14] (mouse) is at least 16.7 mg/kg. In addition, the entries for the “PAE” value in [5] (1 h exposure at 5 × MIC), in data set [5] (1 h exposure at 50 × MIC) and in [5] (1 h exposure at 100 × MIC) were 9.4 ± 1.6 h, 14.2 ± 0.9 h and 34.5 ± 1.8 h, respectively.
On to `O=C(NS(=O)(=O)O)c1ccccc1O` [compound 8, salicyl-sulfamate], for which the IC50 in data set [1] (IC50 (mM), effect on the MbtAtb-dependent signal in the HA-MesG assay, salicyl-AMS fragments, nonspecific inhibition control) was about 1e+06 nM.
